The target in the test is T1, VPS34 (Homo sapiens, UniProt Q8NEB9).
T1 construct: GST (N); host or cells: SF9 insect cells (baculovirus)
The test is described as follows: Human VPS34 enzyme assay (Adapta TR-FRET). The test is classed as biochemical. The following applies: for VPS34 Percent Inhibition: at a 1.11 μM concentration. As for the experimental part: VPS34 (accession number GB:BC033004) was cloned into pDEST20-Thombin as N-terminal GST tagged fusion proteins using the Gateway system (Invitrogen, catalog#11804-013). The sequences were verified before recombinant protein expression using the Baculovirus Expression System with Gateway® Technology.
For expression VPS34 was infected at 1MOI in SF9 cells and harvested 72 hours post infection.
For purification, VPS34 is purified by Glutathione Sepharose 4 Fast Flow (GE Healthcare #17-5132-03) followed by HiTrap Q (GE Healthcare #17-1153-01).
Human VPS34 Enzyme Assay Method
100 mL compounds in DMSO are added to wells of a 384 well microtitre plate (Greiner 780076). At room temperature: 5 ul VPS34 reaction buffer (Invitrogen Assay Buffer Q (diluted 1 in 5 with nanopure water) plus 2 mM DTT and 2 mM MnCl2) containing ATP (20 uM, Promega) and 200 uM PI-PS substrate (Invitrogen PV5122) is added followed immediately by 5 ul VPS34 reaction buffer (as above) containing VPS34 (5 nM, Millennium Protein Sciences Group) and the mixture is incubated with shaking at room temperature for 1 hour. Then 5 ul VPS34 stop-detect mix (as per Invitrogen Adapta Assay kit (PV5009) instructions (contains kinase quench buffer, TR-FRET buffer, Adapta Eu anti-ADP antibody and Alexa Fluor 647 ADP tracer)) is added to quench the reaction. The plates are then incubated for 30 minutes at room temperature with shaking and then read on a BMG PheraStar Plus reader.
For the assay methods described above, test compound percent inhibition, at various concentrations, is calculated relative to control (DMSO and EDTA) treated samples. Compound concentration versus percent inhibition curves are fitted to generate IC50 values. One skilled in the art will appreciate that the values generated either as percentage inhibition at a single concentration or IC50 values are subject to experimental variation.
3) VPS34 is assayed using Adapta™ Universal Kinase Assay Kit (Invitrogen).

SMILES strings stand for the structures.

T1 sequence (Q8NEB9 whole entry): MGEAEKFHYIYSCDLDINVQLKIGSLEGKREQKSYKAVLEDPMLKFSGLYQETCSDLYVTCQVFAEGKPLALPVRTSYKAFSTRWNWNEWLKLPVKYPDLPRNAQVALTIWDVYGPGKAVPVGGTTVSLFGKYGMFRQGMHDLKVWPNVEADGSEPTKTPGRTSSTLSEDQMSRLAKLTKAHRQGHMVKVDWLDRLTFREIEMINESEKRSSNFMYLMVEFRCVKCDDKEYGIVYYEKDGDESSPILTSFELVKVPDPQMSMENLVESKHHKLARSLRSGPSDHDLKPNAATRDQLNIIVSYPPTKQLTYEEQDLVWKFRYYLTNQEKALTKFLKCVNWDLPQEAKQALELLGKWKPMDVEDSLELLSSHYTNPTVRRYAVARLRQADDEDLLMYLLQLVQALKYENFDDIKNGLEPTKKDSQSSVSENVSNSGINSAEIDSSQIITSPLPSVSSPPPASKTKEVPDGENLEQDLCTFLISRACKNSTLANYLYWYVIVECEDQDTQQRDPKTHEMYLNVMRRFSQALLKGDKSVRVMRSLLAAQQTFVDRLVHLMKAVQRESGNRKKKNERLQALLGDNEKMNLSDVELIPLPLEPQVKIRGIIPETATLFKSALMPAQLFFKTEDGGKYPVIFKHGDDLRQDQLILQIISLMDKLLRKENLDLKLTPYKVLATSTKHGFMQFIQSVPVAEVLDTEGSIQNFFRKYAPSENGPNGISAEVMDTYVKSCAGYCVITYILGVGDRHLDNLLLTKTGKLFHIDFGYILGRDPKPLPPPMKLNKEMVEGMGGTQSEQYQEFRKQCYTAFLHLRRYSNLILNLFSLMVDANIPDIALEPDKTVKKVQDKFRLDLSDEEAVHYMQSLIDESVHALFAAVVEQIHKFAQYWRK

The term IC50 denotes the point on the concentration scale where inhibition reaches its midpoint. Read a low IC50 as greater potency in that assay. Turning to `CC(=O)Nc1cc2c(ccn3c(C(N)=O)c(-c4ccc(Cl)cc4Cl)nc23)cn1` [Compound I-24, 9-acetamido-2-(2,4-dichlorophenyl)imidazo[2,1-a][2,6]naphthyridine-3-carboxamide], the IC50 is below 0.3 µM and the “VPS34 Percent Inhibition” value was above 99.
As to `CC(=O)Nc1cc(-c2cn(-c3ccccn3)c(-c3ccccc3Cl)n2)ccn1` [Compound I-105, N-{4-[2-(2-chlorophenyl)-1-(pyridin-2-yl)-1H-imidazol-4-yl]pyridin-2-yl}acetamide], the IC50 was 0.3 to 1 µM and the “VPS34 Percent Inhibition” value is given as 55.
The corresponding values for `CC(=O)Nc1cc(-c2nc(-c3ccc(Cl)cc3Cl)c(C(N)=O)[nH]2)ccn1` [Compound I-19, 2-(2-acetamidopyridin-4-yl)-4-(2,4-dichlorophenyl)-1H-imidazole-5-carboxamide] are 1 to 3 µM and 28.
Taken in the same sequence, the figures for `CC(=O)Nc1cc(-c2cn(-c3ccc(Cl)cc3Cl)c(-c3ccn[nH]3)n2)c(C)cn1` [Compound I-16, N-{4-[1-(2,4-dichlorophenyl)-2-(1H-pyrazol-5-yl)-1H-imidazol-4-yl]-5-methylpyridin-2-yl}acetamide] were 1 to 3 µM and 35.
Turning to `CC(=O)Nc1cc(-c2cn(-c3ccc(Cl)cc3Cl)c(-c3ccn[nH]3)n2)ccn1` [Compound I-10, N-{4-[1-(2,4-dichlorophenyl)-2-(1H-pyrazol-5-yl)-1H-imidazol-4-yl]pyridin-2-yl}acetamide], the 50% inhibitory concentration (IC50) is 1 to 3 µM and the “VPS34 Percent Inhibition” value is 27.

The values are drawn from patent US20130165472A1, “HETEROARYLS AND USES THEREOF” (MILLENNIUM PHARMACEUTICALS, INC., priority 2011, published 2013).
